Reference: PMC9706920, “Aryloxypropanolamine targets amyloid aggregates and reverses Alzheimer-like phenotypes in Alzheimer mouse models” (Alzheimer's Research & Therapy, 2022)

Test: Plasma stability, rat
Format: in vitro ADME
Conditions: 10 μM, 37°C, vs 0 min
Protocol: To assess the plasma stability of YIAD002, […] rat plasma and incubated at 37°C for the following time points: 0, 30, and 120 min. At the end of incubation, acetonitrile with chlorpropamide was added to stop reactions. The solutions were centrifuged at 14,000 rpm at 4°C for 5 min and the supernatant was analyzed with LC-MS/MS. High performance liquid chromatography was carried out on a Kinetex C18 column (2.1 × 100 mm, 2.6 μm particle size, Phenomenex, USA). The composition of the mobile phase was 0.1% formic acid in water (A) and 0.1% formic acid in acetonitrile (B).

SMILES: CCC(C)(C)c1ccc(OCC(O)CN2CCCC2)c(C(C)(C)CC)c1.Cl (centres unmarked) [YIAD002, 1-(3-(2,4-Di-tert-pentylphenoxy)-2-hydroxypropyl)pyrrolidin-1-ium chloride]
- Compound remaining in rat plasma (30 min): 94.5%
- Compound remaining in rat plasma (120 min): 87.7%
